In ChEMBL document CHEMBL1143807, “Design and synthesis of oxime ethers of alpha-acyl-beta-phenylpropanoic acids as PPAR dual agonists” (Bioorg Med Chem Lett, 2007):

Key:
[1] = biological target: T1, Peroxisome proliferator-activated receptor gamma (Homo sapiens, UniProt P37231)
T1 sequence (P37231 whole entry): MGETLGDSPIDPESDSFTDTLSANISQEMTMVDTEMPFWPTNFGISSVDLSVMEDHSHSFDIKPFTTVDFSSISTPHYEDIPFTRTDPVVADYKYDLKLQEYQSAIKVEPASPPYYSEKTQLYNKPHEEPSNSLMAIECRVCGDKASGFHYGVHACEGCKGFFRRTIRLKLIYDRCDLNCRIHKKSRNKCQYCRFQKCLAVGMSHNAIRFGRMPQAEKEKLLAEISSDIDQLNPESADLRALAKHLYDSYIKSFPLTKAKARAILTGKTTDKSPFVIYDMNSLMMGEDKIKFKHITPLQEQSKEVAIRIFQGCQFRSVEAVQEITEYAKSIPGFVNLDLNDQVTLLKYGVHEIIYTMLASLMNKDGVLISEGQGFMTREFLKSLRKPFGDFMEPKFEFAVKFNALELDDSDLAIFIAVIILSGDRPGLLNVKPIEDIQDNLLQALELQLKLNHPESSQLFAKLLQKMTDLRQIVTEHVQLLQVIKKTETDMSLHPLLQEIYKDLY
Description: Agonist activity at human PPARgamma in HepG2 cells by PPAR-GAL4 transactivation assay

[2] = biological target: T2, Peroxisome proliferator-activated receptor alpha (Homo sapiens, UniProt Q07869); test: Agonist activity at human PPARalpha in HepG2 cells by PPAR-GAL4 transactivation assay; format: functional, cell-based
T2 sequence (Q07869 whole entry): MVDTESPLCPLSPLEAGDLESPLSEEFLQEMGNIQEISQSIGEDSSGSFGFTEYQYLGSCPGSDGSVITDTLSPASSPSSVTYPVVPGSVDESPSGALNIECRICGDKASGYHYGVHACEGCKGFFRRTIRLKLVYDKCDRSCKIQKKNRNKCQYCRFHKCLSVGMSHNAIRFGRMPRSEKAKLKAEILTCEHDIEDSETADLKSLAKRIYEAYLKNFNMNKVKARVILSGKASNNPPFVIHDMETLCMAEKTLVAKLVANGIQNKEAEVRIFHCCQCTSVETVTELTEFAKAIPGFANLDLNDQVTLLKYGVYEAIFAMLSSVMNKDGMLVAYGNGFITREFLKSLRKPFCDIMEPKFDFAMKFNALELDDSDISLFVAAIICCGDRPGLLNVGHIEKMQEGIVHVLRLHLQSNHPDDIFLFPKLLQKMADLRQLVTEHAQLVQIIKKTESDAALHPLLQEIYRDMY

[3] = test system: Mus musculus; test: Decrease in plasma triglyceride level in db/db mouse at 10 mg/kg, po; format: functional; set-up: scale not given: the % may be the effect or the level left
[4] = test system: Mus musculus; test: Decrease in plasma glucose level in db/db mouse at 10 mg/kg, po; format: functional; set-up: scale not given: the % may be the effect or the level left
[5] = Tmax in Sprague-Dawley rat at 10 mg/kg, po; format: ADME, organism-based; set-up: dose 10 mg/kg, route oral; conditions: in vivo
[6] = Clearance in Sprague-Dawley rat at 5 mg/kg, iv; format: ADME, organism-based; set-up: dose 5 mg/kg, route intravenous; conditions: in vivo
[7] = Volume of distribution in Sprague-Dawley rat at 5 mg/kg, iv; format: ADME, organism-based; set-up: dose 5 mg/kg, route intravenous; conditions: in vivo, read-out: Vdss
[8] = Bioavailability in Sprague-Dawley rat at 10 mg/kg, po; format: ADME, organism-based; conditions: in vivo
[9] = test system: Mus musculus; test: Decrease in plasma triglyceride level in db/db mouse at 0.1 mg/kg, po; format: functional; set-up: scale not given: the % may be the effect or the level left
[10] = AUC (0-24 hrs) in Sprague-Dawley rat at 10mg/kg, po; format: ADME, organism-based; set-up: dose 10 mg/kg, time < 24 hr, route oral; conditions: plasma
[11] = Cmax in Sprague-Dawley rat at 10 mg/kg, po; format: ADME, organism-based; set-up: dose 10 mg/kg, route oral; conditions: in vivo
[12] = test system: Mus musculus; test: Decrease in plasma triglyceride level in db/db mouse at 1 mg/kg, po; format: functional; set-up: scale not given: the % may be the effect or the level left
[13] = Half life in Sprague-Dawley rat at 5 mg/kg, iv; format: ADME, organism-based; set-up: dose 5 mg/kg, route intravenous; conditions: in vivo
[14] = test system: Mus musculus; test: Decrease in plasma glucose level in db/db mouse at 0.1 mg/kg, po; format: functional; set-up: scale not given: the % may be the effect or the level left
[15] = Half life in Sprague-Dawley rat at 10 mg/kg, po; format: ADME, organism-based; set-up: dose 10 mg/kg, route oral; conditions: in vivo
[16] = test system: Mus musculus; test: Decrease in plasma glucose level in db/db mouse at 1 mg/kg, po; format: functional; set-up: scale not given: the % may be the effect or the level left
[17] = AUC (0-24 hrs) in Sprague-Dawley rat at 5 mg/kg, iv; format: ADME, organism-based; set-up: time < 24 hr, dose 5 mg/kg, route intravenous; conditions: plasma

EC50 [1] [nM] | EC50 [2] [nM] | Structure (SMILES) | further results
1 | 12 | CCO/N=C(\C)C(Cc1ccc(OCCc2nc(-c3ccccc3)oc2C)cc1)C(=O)O (stereo not given) | 
6.8 | 12 | CCO/N=C(\C)C(Cc1ccc(OCc2nc(-c3ccc(F)cc3)oc2C)cc1)C(=O)O (stereo not given) | 
0.3 | 2.2 | C/C(=N\OCC(C)C)C(Cc1ccc(OCCc2nc(-c3ccccc3)oc2C)cc1)C(=O)O (stereo not given) | 
0.31 | 32 | CC/C(=N\OC)C(Cc1ccc(OCCc2nc(-c3ccccc3)oc2C)cc1)C(=O)O (stereo not given) | 
3 | 11.5 | CCO/N=C(\C)C(Cc1ccc(OCCc2nc(-c3ccc(F)cc3)oc2C)cc1)C(=O)O (stereo not given) | 
2.9 | 3.5 | C/C(=N\OCCF)C(Cc1ccc(OCCc2nc(-c3ccc(F)cc3)oc2C)cc1)C(=O)O (stereo not given) | 
2.1 | 4 | CCCO/N=C(\C)C(Cc1ccc(OCCc2nc(-c3ccc(F)cc3)oc2C)cc1)C(=O)O (stereo not given) | 
28 | 11.7 | CCCO/N=C(\C)C(Cc1ccc(OCc2nc(-c3ccc(F)cc3)oc2C)cc1)C(=O)O (stereo not given) | 
2.1 | 19 | CO/N=C(\C)C(Cc1ccc(OCCc2nc(-c3ccccc3)oc2C)cc1)C(=O)O (stereo not given) | 
20 | 139 | CCO/N=C(\C)C(Cc1ccc(OCCc2nc(C(C)C)oc2C)cc1)C(=O)O (stereo not given) | 
7.7 | 23 | C/C(=N\OCCF)C(Cc1ccc(OCc2nc(-c3ccc(F)cc3)oc2C)cc1)C(=O)O (stereo not given) | 
0.19 | 1.3 | CCCCO/N=C(\C)C(Cc1ccc(OCCc2nc(-c3ccccc3)oc2C)cc1)C(=O)O (stereo not given) | 
0.55 | 4.9 | CCCO/N=C(\C)C(Cc1ccc(OCCc2nc(-c3ccccc3)oc2C)cc1)C(=O)O (stereo not given) | 
48 | 1240 | CCO/N=C(\C)C(Cc1ccc(OCc2nc(C(C)C)oc2C)cc1)C(=O)O (stereo not given) | 

Continued, compound first:

Structure (SMILES) | EC50 [1] [nM] | EC50 [2] [nM] | further results
CCCO/N=C(\C)C(Cc1ccc(OCc2nc(C(C)C)oc2C)cc1)C(=O)O (stereo not given) | 5 | 105 | 
CCO/N=C(\C)C(Cc1ccc(OCc2nc(-c3ccccc3)oc2C)cc1)C(=O)O (stereo not given) | 4 | 91 | 
CCCO/N=C(\C)C(Cc1ccc(OCCc2nc(C(C)C)oc2C)cc1)C(=O)O (stereo not given) | 5.2 | 10 | 
CN(CCOc1ccc(CC2SC(=O)NC2=O)cc1)c1ccccn1 (stereo not given) [ROSIGLITAZONE] |  |  | Activity [3]: 65%; Activity [4]: 65%
C/C(=N/OCc1ccc(F)cc1)C(Cc1ccc(OCCc2nc(-c3ccccc3)oc2C)cc1)C(=O)O (stereo not given) | 5 | 596 | 
CCCO/N=C(\C)C(Cc1ccc(OCc2nc(-c3ccccc3)oc2C)cc1)C(=O)O (stereo not given) | 13 | 19 | Tmax [5]: 0.5 h; clearance [6]: 0.8 mL/min/kg; Vd [7]: 0.329 L/kg; bioavailability [8]: 75.5%; Activity [9]: 43%; AUC(0-t) at 24 h [10]: 162 µg·h/mL; Cmax [11]: 22600 ng/mL; Activity [12]: 41%; Activity [3]: 58%; half-life [13]: 5.93 h; Activity [4]: 73%; Activity [14]: 8%; half-life [15]: 8.05 h; Activity [16]: 56%; AUC(0-t) at 24 h [17]: 113 µg·h/mL
C/C(=N\OCC1CC1)C(Cc1ccc(OCCc2nc(-c3ccccc3)oc2C)cc1)C(=O)O (stereo not given) | 0.36 | 3.1 | 
CCO/N=C(\CC)C(Cc1ccc(OCCc2nc(-c3ccccc3)oc2C)cc1)C(=O)O (stereo not given) | 0.1 | 26 | 
C/C(=N\OCc1ccc(F)cc1)C(Cc1ccc(OCCc2nc(-c3ccccc3)oc2C)cc1)C(=O)O (stereo not given) | 0.54 | 10.6 | 
CCO[C@@H](Cc1ccc(OCCc2ccc(OS(C)(=O)=O)cc2)cc1)C(=O)O [TESAGLITAZAR] | 3530 | 9800 | Activity [12]: 38%; Activity [16]: 68%
